From patent publication US6207686A, “Endothelin antagonists” (Fujisawa Pharmaceutical Co., Ltd., priority 1994, dated 2001)
pIC50: −log10 of the molar value.

Tests used:
[1] = molecular target: T1, ETB (Sus scrofa, UniProt P35463); assay: ETB Antagonistic Activity: radioligand binding assay, effect on specific binding of [^125 I]ET-1 in porcine kidney membrane; settings: inner medulla of porcine kidney membrane; [^125 I]ET-1 16 pM
T1 construct: Membranes as endothelin receptors were isolated from inner medulla of porcine kidney; from tissue; host or cells: inner medulla of porcine kidney, crude membranes
T1 sequence (P35463 27-443): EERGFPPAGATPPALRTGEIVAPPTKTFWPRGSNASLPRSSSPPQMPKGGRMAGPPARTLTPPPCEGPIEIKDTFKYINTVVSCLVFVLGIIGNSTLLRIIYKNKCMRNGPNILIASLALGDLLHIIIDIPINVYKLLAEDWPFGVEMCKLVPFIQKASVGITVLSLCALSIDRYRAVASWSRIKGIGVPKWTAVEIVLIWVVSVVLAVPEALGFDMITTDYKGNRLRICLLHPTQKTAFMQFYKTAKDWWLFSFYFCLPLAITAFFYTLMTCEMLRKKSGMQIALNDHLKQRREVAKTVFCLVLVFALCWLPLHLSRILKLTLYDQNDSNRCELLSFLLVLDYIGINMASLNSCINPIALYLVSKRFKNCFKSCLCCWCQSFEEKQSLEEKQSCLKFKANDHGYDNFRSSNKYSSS
Procedure: (ETB Antagonistic Activity)
(§1) Radioligand binding assay:
(§2) (a) Crude receptor membrane preparation:
Membranes as endothelin receptors were isolated from inner medulla of porcine kidney. The inner medulla of porcine kidney was placed in ice-cold buffer (0.25M sucrose, 5 mM Tris-HCl, 0.1 mM EDTA, pH 7.5). The inner medulla was homogenized in five volumes (w/v) of ice-cold buffer using a Brinkman Polytron PT-10 at a setting of 16,000 rpm for three 10-sec periods. The homogenate was centrifuged at 10,000× g for 20 minutes at 4° C. The pellet was discarded and the supernatant was centrifuged at 100,000× g for 60 minutes at 4° C. […]
To determine [^125 I]ET-1 binding to kidney, membrane suspensions prepared from kidney (10 μg of protein) were incubated by constant shaking for 60 minutes at 23° C. with [^125 I]ET-1 (range, 4-900 pM) in a total volume of 250 μl of buffer 1 that contained 0.1 mg/ml of bovine serum albumin. […] The filter disks were washed three times with 0.1 ml of ice-cold 50 mM Tris-HCl buffer (pH 7.5), and the radioactivity was counted in a gamma counter (Hewlett-Packard) with an efficiency of 71%. […] The Kd was determined by Scatchard analysis. […]

[2] = molecular target: T2, ETA (Sus scrofa, UniProt Q29010); assay: ETA Antagonistic Activity: radioligand binding assay, effect on specific binding of ^125 I-endothelin-1 in porcine aorta membrane; settings: ^125 I-Endothelin-1 1.67×10^-11 M, room temperature, 60 minutes
T2 construct: The aorta membrane fractions were stored at -80° C. until use; tissue Pel-Freez Biologicals (U.S.A.); host or cells: porcine aorta, crude membrane fraction
T2 sequence (Q29010 21-427): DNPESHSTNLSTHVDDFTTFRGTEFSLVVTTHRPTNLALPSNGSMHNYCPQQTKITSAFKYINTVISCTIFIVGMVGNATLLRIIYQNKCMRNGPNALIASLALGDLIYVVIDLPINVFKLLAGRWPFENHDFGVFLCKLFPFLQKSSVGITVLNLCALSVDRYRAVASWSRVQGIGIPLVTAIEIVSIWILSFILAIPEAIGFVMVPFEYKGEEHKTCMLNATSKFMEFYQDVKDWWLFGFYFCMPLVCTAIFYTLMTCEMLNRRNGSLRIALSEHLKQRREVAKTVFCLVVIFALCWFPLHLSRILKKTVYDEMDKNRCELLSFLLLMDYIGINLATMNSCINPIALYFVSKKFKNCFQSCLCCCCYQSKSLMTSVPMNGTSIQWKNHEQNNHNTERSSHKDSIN
Procedure: (ETA Antagonistic Activity)
as §1, §2
Porcine aorta was purchased from Pel-Freez Biologicals (U.S.A.) and stored at -80° C. until use.
Porcine aorta (50 g) was thawed and dissected free from fatty tissue, minced with scissors and then homogenized with a polytron (Brinkmann PT-20, maximal speed for 3×10 sec) in 100 ml buffer (0.25M sucrose, 10 mM Tris-HCl, 0.1 mM EDTA).
The homogenate was centrifuged at 10,000 g for 20 minutes at 4° C.
The supernatant, containing the plasma membrane fraction, was centrifuged at 100,000 g for 60 minutes at 4° C., and then resultant pellets were referred to as crude membrane fractions.
The pellets were resuspended in 25 ml of binding assay buffer (50 mM Tris-HCl, 100 mM NaCl, 5 mM MgCl2, 1.5 μg/ml phenylmethylsulfonyl fluoride (PMSF), 120 μg/ml bacitracin, 12 μg/ml leupepcin, 6 μg/ml chymostain, 0.1% bovine serum albumin (BSA), pH 7.5).
The aorta membrane fractions were stored at -80° C. until use.
(b) ^125 I-endothelin-1 binding assay: […]
After incubation, the incubation mixture were filtered through Glass-fiber GF/C filter (pretreated with 0.1% polyethylene imine for 3 hours prior to use) using cell harvester (Brandel M-24S). […] The filters were counted in a gamma counter (Packard Auto Gamma Model 5650).

Row | SMILES | pIC50 [1] | pIC50 [2]
1 | CCC[C@@H](O)[C@H](C(=O)N[C@@H](Cc1c[nH]c2ccccc12)C(=O)O)c1ccc2c(c1)OCO2 (mixture of isomers) [Compound B, N-[(2RS,3RS)-2-(3,4-Methylenedioxyphenyl)-3-hydroxyhexanoyl]-L-tryptophan] | > 8.00 | 7.40
2 | CCC[C@@H](O)[C@H](C(=O)O)c1ccc2c(c1)OCO2 (racemic) [Compound C, (2RS,3RS)-2-(3,4-Methylenedioxyphenyl)-3-hydroxyhexanoic acid] | – | 6.28
3 | O=C(O)[C@H](Cc1c[nH]c2ccccc12)NC(=O)[C@H](c1ccccc1O)[C@H](O)C1CCCCC1 [Compound A, N-[(2R,3R)-3-Cyclohexyl-2-(2-hydroxyphenyl)-3-hydroxypropionyl]-L-tryptophan] | 7.12 | –
